Earlier results in patent US20080044496A1, “ARTHRITIS PHYTO-NUTRACEUTICAL SYNERGISTIC COMPOSITION” (priority 2006, published 2008).

Test system: human rheumatoid arthritis synoviocytes

In the case of `C[C@@H]1CC[C@@]2(OC1)O[C@H]1C[C@H]3[C@@H]4CC=C5C[C@@H](O)CC[C@]5(C)[C@H]4CC[C@]3(C)[C@H]1[C@@H]2C` [diosgenine], the apoptosis is given as “induces apoptosis”.
